Measurements taken from ChEMBL document CHEMBL1641467, “Quinazolinones as γ-secretase modulators” (Bioorg Med Chem Lett, 2011).
Converted amounts (≈) assume the structure as drawn.

Tests used:
[1] = biological target: Gamma-secretase; experiment: Inhibition of gamma-secretase in human SH-SY5Y cells overexpressing APP assessed as amyloid beta-42 production by electrochemiluminescent assay
[2] = biological target: Voltage-gated inwardly rectifying potassium channel KCNH2 (Homo sapiens, UniProt Q12809)
Voltage-gated inwardly rectifying potassium channel KCNH2, sequence (Q12809 whole entry): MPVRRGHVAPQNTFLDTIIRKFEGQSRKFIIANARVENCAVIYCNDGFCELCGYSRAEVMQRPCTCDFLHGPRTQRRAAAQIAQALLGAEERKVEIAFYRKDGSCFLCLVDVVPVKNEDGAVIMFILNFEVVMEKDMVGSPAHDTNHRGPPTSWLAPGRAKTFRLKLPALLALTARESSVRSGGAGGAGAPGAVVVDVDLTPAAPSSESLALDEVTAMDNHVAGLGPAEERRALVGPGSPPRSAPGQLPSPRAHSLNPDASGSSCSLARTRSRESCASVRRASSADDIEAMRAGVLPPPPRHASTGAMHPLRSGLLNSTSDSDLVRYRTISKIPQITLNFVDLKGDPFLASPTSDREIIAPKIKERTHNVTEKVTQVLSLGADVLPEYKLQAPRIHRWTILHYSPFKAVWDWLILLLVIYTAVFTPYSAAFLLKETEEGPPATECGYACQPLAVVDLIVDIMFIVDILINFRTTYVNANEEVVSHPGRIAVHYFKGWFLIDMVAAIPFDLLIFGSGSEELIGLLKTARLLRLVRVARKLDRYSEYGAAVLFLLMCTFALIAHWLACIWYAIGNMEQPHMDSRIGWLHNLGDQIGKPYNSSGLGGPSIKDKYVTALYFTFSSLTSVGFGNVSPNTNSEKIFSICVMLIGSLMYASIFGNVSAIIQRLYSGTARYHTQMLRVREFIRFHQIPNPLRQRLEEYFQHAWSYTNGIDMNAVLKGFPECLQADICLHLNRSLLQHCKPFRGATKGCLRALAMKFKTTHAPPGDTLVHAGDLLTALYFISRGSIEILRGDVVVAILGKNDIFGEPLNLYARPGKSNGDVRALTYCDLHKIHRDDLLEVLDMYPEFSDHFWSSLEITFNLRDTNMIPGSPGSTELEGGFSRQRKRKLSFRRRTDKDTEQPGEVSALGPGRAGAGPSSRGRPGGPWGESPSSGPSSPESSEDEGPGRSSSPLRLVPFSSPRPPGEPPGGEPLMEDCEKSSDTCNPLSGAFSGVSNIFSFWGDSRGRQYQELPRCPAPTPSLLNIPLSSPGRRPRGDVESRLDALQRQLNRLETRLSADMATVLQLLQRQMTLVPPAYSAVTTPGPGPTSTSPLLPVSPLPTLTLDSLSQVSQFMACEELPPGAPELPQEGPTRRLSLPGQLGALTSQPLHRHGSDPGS
Description: Displacement of radiolabeled MK-499 from human ERG expressed in HEK293 cells

[3] = biological target: Gamma-secretase; experiment: Inhibition of gamma-secretase in human SH-SY5Y cells overexpressing APP assessed as amyloid beta-40 production by electrochemiluminescent assay
[4] = Solubility of the compound in PBS buffer; assay type: physicochemical
[5] = system: Rattus norvegicus; experiment: Dose normalized AUC in Sprague-Dawley rat at 2 mg/kg, po; assay type: ADME, organism-based; set-up: dose 2 mg/kg, route oral; conditions: in vivo
[6] = Half life in Sprague-Dawley rat at 1 mg/kg, iv; assay type: ADME, organism-based; set-up: dose 1 mg/kg, route intravenous; conditions: in vivo
[7] = system: Rattus norvegicus; experiment: Volume of distribution at steady state in Sprague-Dawley rat at 2 mg/kg, po; assay type: ADME, organism-based; set-up: dose 2 mg/kg, route oral; conditions: in vivo
[8] = Volume of distribution at steady state in Sprague-Dawley rat at 1 mg/kg, iv; assay type: ADME, organism-based; set-up: dose 1 mg/kg, route intravenous; conditions: in vivo
[9] = Oral bioavailability in Sprague-Dawley rat at 2 mg/kg; assay type: ADME, organism-based; conditions: in vivo
[10] = Plasma clearance in Sprague-Dawley rat at 1 mg/kg, iv; assay type: ADME, organism-based; set-up: dose 1 mg/kg, route intravenous
[11] = Plasma clearance in Sprague-Dawley rat at 2 mg/kg, po; assay type: ADME, organism-based; set-up: dose 2 mg/kg, route oral

COc1cc(/C=C/c2nc(N)c3c(n2)oc2ccccc23)ccc1-n1cnc(C)c1
IC50 [1]: 320 nM | IC50 [2]: 510 nM | IC50 [3]: 2.96 µM

COc1cc(/C=C/c2nc3sc(C)c(C)c3c(=O)[nH]2)ccc1-n1cnc(C)c1
IC50 [1]: 1650 nM | IC50 [2]: > 10000 nM | IC50 [3]: > 10 µM

COc1cc(/C=C/c2nc3cc(S(C)(=O)=O)ccc3c(=O)[nH]2)ccc1-n1cnc(C)c1
IC50 [1]: 2180 nM | IC50 [3]: 6.74 µM

COc1cc(/C=C/c2nc3ccccc3c(=O)n2C)ccc1-n1cnc(C)c1
IC50 [1]: > 10000 nM | IC50 [3]: > 10 µM | solubility [4]: 33 µM (≈ 12.3 µg/mL)

COc1cc(/C=C/c2nc(NCc3ccccc3)c3c4c(sc3n2)CCC4)ccc1-n1cnc(C)c1
IC50 [1]: 1860 nM | IC50 [2]: 1120 nM | IC50 [3]: > 10 µM

COc1cc(/C=C/c2nc3ccccc3c(=O)n2-c2ccccc2)ccc1-n1cnc(C)c1
IC50 [1]: 2080 nM | IC50 [2]: 990 nM | IC50 [3]: > 10 µM

COc1cc(/C=C/c2nc(N)nc(Nc3ccccc3)n2)ccc1-n1cnc(C)c1
IC50 [1]: 1070 nM | IC50 [3]: 3.33 µM

COc1cc(/C=C/c2nc3ccccc3[nH]2)ccc1-n1cnc(C)c1
IC50 [1]: 840 nM | IC50 [2]: 680 nM | IC50 [3]: > 10 µM

COc1cc(/C=C/c2nc3cc(C(F)(F)F)ccc3c(=O)[nH]2)ccc1-n1cnc(C)c1
IC50 [1]: 370 nM | IC50 [3]: 3.74 µM

COc1cc(/C=C/c2nc3ccc(F)cc3c(=O)[nH]2)ccc1-n1cnc(C)c1
IC50 [1]: 4280 nM | IC50 [3]: > 10 µM

COc1cc(/C=C/c2nc3scc(C)c3c(=O)[nH]2)ccc1-n1cnc(C)c1
IC50 [1]: 1290 nM | IC50 [2]: > 10000 nM | IC50 [3]: > 10 µM

COc1cc(/C=C/c2nc3cc(Br)ccc3c(=O)[nH]2)ccc1-n1cnc(C)c1
IC50 [1]: 340 nM | IC50 [3]: 4.82 µM

COc1cc(/C=C/c2nc3cc(Cl)ccc3c(=O)[nH]2)ccc1-n1cnc(C)c1
AUC [5]: 7 µM·h | half-life [6]: 348 min | Vdss [7]: 8 L/kg | Vd [8]: 1.8 L/kg | IC50 [1]: 660 nM | bioavailability [9]: 59% | clearance [10]: 6.8 mL/min/kg | CL/F [11]: 8 mL/min/kg | IC50 [3]: > 10 µM

COc1cc(/C=C/c2nc(N)c3c4c(sc3n2)CCCCC4)ccc1-n1cnc(C)c1
IC50 [1]: 200 nM | IC50 [3]: 2.03 µM

COc1cc(/C=C/c2nc3sc4c(c3c(=O)[nH]2)CCC4)ccc1-n1cnc(C)c1
IC50 [1]: 370 nM | IC50 [2]: 4730 nM | IC50 [3]: 3.89 µM

CCOC(=O)c1sc2nc(/C=C/c3ccc(-n4cnc(C)c4)c(OC)c3)nc(N)c2c1C
IC50 [1]: 540 nM | IC50 [2]: 980 nM | IC50 [3]: 3.72 µM

COc1cc(/C=C/c2nc(N)c3ccccc3n2)ccc1-n1cnc(C)c1
IC50 [1]: 1690 nM | IC50 [2]: 140 nM | IC50 [3]: 6.1 µM | solubility [4]: 6 µM (≈ 2.14 µg/mL)

COc1cc(/C=C/c2nc3ccccc3c(=O)[nH]2)ccc1-n1cnc(C)c1
IC50 [1]: 3890 nM | IC50 [3]: 4.95 µM

COc1cc(/C=C/c2nc3cccc(F)c3c(=O)[nH]2)ccc1-n1cnc(C)c1
IC50 [1]: 4870 nM | IC50 [3]: > 10 µM
